Source: patent US9096558B2, “N-sulfonylbenzamide compounds” (Pfizer Limited, priority 2010, dated 2015)
Where a name gives a salt, the structure may show the parent alone.

Molecular target: T1, Nav1.7 (or SCN9A) channel (Homo sapiens, UniProt Q15858)
T1 construct: expressed in transfected cells
Test: Nav1.7 (hSCN9A) PatchXpress electrophysiology assay
Assay type: cell-based
Conditions: estimated IC50 calculated from single point electrophysiology data; PatchXpress platform; HEK cells stably expressing hSCN9A; held at V1/2 of inactivation; read-out: Nav1.7 EIC50
Method: The ability of the compounds of formula (I) to block the Nav1.7 (or SCN9A) channel were measured using the assay described below.
Human Embryonic Kidney (HEK) cells were transfected with an hSCN9A construct using lipofectamine reagent (Invitrogen), using standard techniques. Cells stably expressing the hSCN9A constructs were identified by their resistance to G-418 (400 μg/ml). Clones were screened for expression using the whole-cell voltage-clamp technique.
HEK cells stably transfected with hSCN9A were maintained in DMEM medium supplemented with 10% heat-inactivated fetal bovine serum and 400 μg/ml G-418 in an incubator at 37° C. with a humidified atmosphere of 10% CO2. For HTS, cells were harvested from flasks by trypsinization and replated in an appropriate multi-well plate (typically 96 or 384 wells/plate) such that confluence would be achieved within 24 hours of plating. For electrophysiological studies, cells were removed from the culture flask by brief trypsinization and re-plated at low density onto glass cover slips. Cells were typically used for electrophysiological experiments within 24 to 72 hours after plating.
Cover slips containing HEK cells expressing hSCN9A were placed in a bath on the stage of an inverted microscope and perfused (approximately 1 ml/minutes) with extracellular solution of the following composition: 138 mM NaCl, 2 mM CaCl2, 5.4 mM KCl, 1 mM MgCl2, 10 mM glucose, and 10 mM HEPES, pH 7.4, with NaOH. […] The osmolarity of the extracellular and intracellular solutions was 300 mOsm/kg and 295 mOsm/kg, respectively. All recordings were made at room temperature (22-24° C.) using AXOPATCH 200B amplifiers and PCLAMP software (Axon Instruments, Burlingame, Calif.).
hSCN9A currents in HEK cells were measured using the whole-cell configuration of the patch-clamp technique (Hamill et al., 1981). Uncompensated series resistance was typically 2 to 5 mega ohms and >85% series resistance compensation was routinely achieved. As a result, voltage errors were negligible and no correction was applied. Current records were acquired at 20 to 50 KHz and filtered at 5 to 10 KHz.
HEK cells stably transfected with hSCN9A were viewed under Hoffman contrast optics and placed in front of an array of flow pipes emitting either control or compound-containing extracellular solutions. All compounds were dissolved in dimethyl sulfoxide to make 10 mM stock solutions, which were then diluted into extracellular solution to attain the final concentrations desired. […] The voltage-dependence of inactivation was determined by applying a series of depolarizing prepulses (8 sec long in 10 mV increments) from a negative holding potential. The voltage was then immediately stepped to 0 mV to assess the magnitude of the sodium current. Currents elicited at 0 mV were plotted as a function of prepulse potential to allow estimation of the voltage at which 50% of the channels were inactivated (midpoint of inactivation or V½). Compounds were tested for their ability to inhibit hSCN9A sodium channels by activating the channel with a 20 msec voltage step to 0 mV following an 8 second conditioning prepulse to the empirically determined V½. Compound effect (% inhibition) was determined by difference in current amplitude before and after application of test compounds. For ease of comparison, “estimated IC-50” (EIC50) values were calculated from single point electrophysiology data by the following equation, (tested concentration, uM)×(100-% inhibition/% inhibition). Inhibition values <20% and >80% were excluded from the calculation.
Electrophysiological assays were conducted with PatchXpress 7000 hardware and associated software (Molecular Devices Corp). All assay buffers and solutions were identical to those used in conventional whole-cell voltage clamp experiments described above. hSCN9A cells were grown as above to 50%-80% confluency and harvested by trypsinization. […]

T1 sequence (Q15858 whole entry): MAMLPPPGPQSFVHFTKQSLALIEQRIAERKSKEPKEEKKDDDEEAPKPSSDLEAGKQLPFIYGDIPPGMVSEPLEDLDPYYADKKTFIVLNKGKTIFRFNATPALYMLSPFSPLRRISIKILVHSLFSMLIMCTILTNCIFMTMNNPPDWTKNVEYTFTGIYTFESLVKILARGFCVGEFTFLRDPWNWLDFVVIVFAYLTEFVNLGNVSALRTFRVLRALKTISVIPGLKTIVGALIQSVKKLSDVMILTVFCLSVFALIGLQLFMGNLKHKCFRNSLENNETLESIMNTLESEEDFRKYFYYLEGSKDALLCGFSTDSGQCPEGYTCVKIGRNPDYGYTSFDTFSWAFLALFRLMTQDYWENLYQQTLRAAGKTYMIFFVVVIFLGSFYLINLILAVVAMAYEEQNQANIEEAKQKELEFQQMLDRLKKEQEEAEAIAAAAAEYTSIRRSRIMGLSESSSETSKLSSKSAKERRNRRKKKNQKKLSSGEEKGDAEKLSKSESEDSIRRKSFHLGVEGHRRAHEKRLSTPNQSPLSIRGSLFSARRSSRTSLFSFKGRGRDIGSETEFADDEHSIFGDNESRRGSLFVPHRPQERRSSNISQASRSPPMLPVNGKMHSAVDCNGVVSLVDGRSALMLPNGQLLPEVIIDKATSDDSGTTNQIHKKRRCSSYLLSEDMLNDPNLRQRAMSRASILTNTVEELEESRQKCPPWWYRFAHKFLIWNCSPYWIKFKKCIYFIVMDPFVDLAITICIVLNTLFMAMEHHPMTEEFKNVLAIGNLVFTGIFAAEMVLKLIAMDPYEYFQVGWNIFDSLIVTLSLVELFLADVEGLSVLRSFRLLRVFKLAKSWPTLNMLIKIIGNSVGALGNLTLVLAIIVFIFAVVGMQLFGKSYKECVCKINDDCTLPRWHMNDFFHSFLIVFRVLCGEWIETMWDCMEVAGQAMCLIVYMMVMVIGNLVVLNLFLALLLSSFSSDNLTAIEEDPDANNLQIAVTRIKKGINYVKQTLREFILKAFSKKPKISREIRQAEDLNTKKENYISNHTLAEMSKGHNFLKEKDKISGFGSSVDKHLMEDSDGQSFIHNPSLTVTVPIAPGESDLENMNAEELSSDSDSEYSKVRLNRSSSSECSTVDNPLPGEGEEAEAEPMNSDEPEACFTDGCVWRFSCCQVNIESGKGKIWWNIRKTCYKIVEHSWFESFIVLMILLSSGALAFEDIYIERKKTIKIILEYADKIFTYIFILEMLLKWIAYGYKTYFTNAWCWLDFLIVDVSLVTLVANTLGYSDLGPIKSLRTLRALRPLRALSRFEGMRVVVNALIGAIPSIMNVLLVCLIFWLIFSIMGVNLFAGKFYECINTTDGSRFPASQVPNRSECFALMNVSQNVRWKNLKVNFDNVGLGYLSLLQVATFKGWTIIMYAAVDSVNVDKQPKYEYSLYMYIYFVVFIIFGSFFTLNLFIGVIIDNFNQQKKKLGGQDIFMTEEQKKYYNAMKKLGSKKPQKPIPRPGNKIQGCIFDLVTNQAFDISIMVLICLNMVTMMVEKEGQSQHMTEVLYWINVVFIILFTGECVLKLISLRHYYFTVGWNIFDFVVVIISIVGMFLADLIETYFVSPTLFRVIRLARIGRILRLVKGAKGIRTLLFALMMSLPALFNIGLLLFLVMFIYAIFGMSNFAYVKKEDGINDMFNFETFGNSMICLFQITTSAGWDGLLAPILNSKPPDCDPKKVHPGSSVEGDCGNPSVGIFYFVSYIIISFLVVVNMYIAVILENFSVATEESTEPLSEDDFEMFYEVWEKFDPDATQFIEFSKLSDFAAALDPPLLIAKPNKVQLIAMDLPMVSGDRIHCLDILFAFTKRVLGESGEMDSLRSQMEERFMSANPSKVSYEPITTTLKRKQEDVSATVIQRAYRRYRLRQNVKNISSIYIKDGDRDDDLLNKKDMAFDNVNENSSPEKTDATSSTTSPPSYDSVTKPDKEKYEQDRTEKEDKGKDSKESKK

`O=S(=O)(Nc1nncs1)c1cc(Cl)c(Sc2cccc(C(F)(F)F)c2)cc1F` [Example 1, 5-Chloro-2-fluoro-N-1,3,4-thiadiazol-2-yl-4-{[3-(trifluoromethyl)phenyl]thio}benzenesulfonamide] was tested, and the IC50 was 0.93 µM.
With `COc1ccc(Sc2cc(F)c(S(=O)(=O)Nc3nncs3)cc2Cl)cc1` [Example 2, 5-Chloro-2-fluoro-4-[(4-methoxyphenyl)thio]-N-1,3,4-thiadiazol-2-ylbenzenesulfonamide] the IC50 was 2.1 µM.
`COc1cccc(Sc2ccc(S(=O)(=O)Nc3ncns3)cc2C#N)c1` [Example 3, 3-Cyano-4-[(3-methoxyphenyl)thio]-N-1,2,4-thiadiazol-5-ylbenzenesulfonamide] showed an IC50 of 1 µM.
Compound `COc1cccc(Sc2cc(F)c(S(=O)(=O)Nc3nncs3)cc2Cl)c1` [Example 4, 5-chloro-2-fluoro-4-[(3-methoxyphenyl)thio]-N-1,3,4-thiadiazol-2-ylbenzenesulfonamide] has an IC50 of 1.9 µM.
In the case of `O=S(=O)(Nc1nncs1)c1cc(Cl)c(Sc2ccccc2C(F)(F)F)cc1F` [Example 5, 5-chloro-2-fluoro-N-1,3,4-thiadiazol-2-yl-4-{[2-(trifluoromethyl)phenyl]thio}benzenesulfonamide], the IC50 is reported as 5.08 µM.
`O=S(=O)(Nc1nncs1)c1cc(Cl)c(Sc2cccc(F)c2)cc1F` [Example 6, 5-chloro-2-fluoro-4-[(3-fluorophenyl)thio]-N-1,3,4-thiadiazol-2-ylbenzenesulfonamide] was tested, and the IC50 was 3.3 µM.
`O=S(=O)(Nc1nncs1)c1cc(Cl)c(Sc2ccccc2F)cc1F` [Example 7, 5-chloro-2-fluoro-4-[(2-fluorophenyl)thio]-N-1,3,4-thiadiazol-2-ylbenzenesulfonamide] was tested, and the IC50 was 3.7 µM.
Work on `COc1ccccc1Sc1cc(F)c(S(=O)(=O)Nc2nncs2)cc1Cl` [Example 8, 5-chloro-2-fluoro-4-[(2-methoxyphenyl)thio]-N-1,3,4-thiadiazol-2-ylbenzenesulfonamide] yielded an IC50 of 0.25 µM.
In the case of `O=S(=O)(Nc1nncs1)c1cc(Cl)c(Sc2ccc(F)c(F)c2)cc1F` [Example 9, 5-chloro-4-[(3,4-difluorophenyl)thio]-2-fluoro-N-1,3,4-thiadiazol-2-ylbenzenesulfonamide], the IC50 is reported as 2.3 µM.
Compound `O=S(=O)(Nc1nncs1)c1cc(Cl)c(Sc2ccc(C(F)(F)F)cc2)cc1F` [Example 10, 5-chloro-2-fluoro-N-1,3,4-thiadiazol-2-yl-4-{[4-(trifluoromethyl)phenyl]thio}benzenesulfonamide] has an IC50 of 5.2 µM.
`COc1ccc(Sc2ccc(S(=O)(=O)Nc3ncns3)cc2C#N)cc1` [Example 11, 3-cyano-4-[(4-methoxyphenyl)thio]-N-1,2,4-thiadiazol-5-ylbenzenesulfonamide] showed an IC50 of over 3 µM.
`COc1ccccc1Sc1ccc(S(=O)(=O)Nc2ncns2)cc1C#N` [Example 12, 3-cyano-4-[(2-methoxyphenyl)thio]-N-1,2,4-thiadiazol-5-ylbenzenesulfonamide] gave an IC50 of 0.32 µM.
`N#Cc1cc(S(=O)(=O)Nc2ncns2)ccc1Sc1cccc(C(F)(F)F)c1` [Example 13, 3-cyano-N-1,2,4-thiadiazol-5-yl-4-{[3-(trifluoromethyl)phenyl]thio}benzenesulfonamide] was tested, and the IC50 was 0.84 µM.
`N#Cc1cc(S(=O)(=O)Nc2ncns2)ccc1Sc1ccc(C(F)(F)F)cc1` [Example 14, 3-cyano-N-1,2,4-thiadiazol-5-yl-4-{[4-(trifluoromethyl)phenyl]thio}benzenesulfonamide] gave an IC50 of 0.19 µM.
`N#Cc1cc(S(=O)(=O)Nc2ncns2)ccc1Sc1ccccc1F` [Example 15, 3-Cyano-4-[(2-fluorophenyl)thio]-N-1,2,4-thiadiazol-5-ylbenzenesulfonamide] showed an IC50 of 0.92 µM.
Compound `N#Cc1cc(S(=O)(=O)Nc2ncns2)ccc1Sc1ccccc1C(F)(F)F` [Example 16, 3-Cyano-N-1,2,4-thiadiazol-5-yl-4-{[2-(trifluoromethyl)phenyl]thio}benzenesulfonamide] has an IC50 of 0.93 µM.
For `N#Cc1cc(S(=O)(=O)Nc2ncns2)ccc1Sc1ccc(F)c(F)c1` [Example 17, 3-Cyano-4-[(3,4-difluorophenyl)thio]-N-1,2,4-thiadiazol-5-ylbenzenesulfonamide], the IC50 was 2.2 µM.
Work on `N#Cc1cc(S(=O)(=O)Nc2ncns2)ccc1Sc1ccc(C(F)(F)F)cc1-c1ccnnc1` [Example 18, 3-Cyano-4-{[2-pyridazin-4-yl-4-(trifluoromethyl)phenyl]thio}-N-1,2,4-thiadiazol-5-ylbenzenesulfonamide] yielded an IC50 of 0.07 µM.
For `O=S(=O)(Nc1nncs1)c1cc(Cl)c(Sc2ccc(C(F)(F)F)cc2-c2ccnnc2)cc1F` [Example 19, 5-Chloro-2-fluoro-4-{[2-pyridazin-4-yl-4-(trifluoromethyl)phenyl]thio}-N-1,3,4-thiadiazol-2-ylbenzenesulfonamide], the IC50 was 0.045 µM.
Work on `Nc1cc(-c2cc(C(F)(F)F)ccc2Sc2cc(F)c(S(=O)(=O)Nc3nncs3)cc2Cl)ccn1` [Example 20, 4-{[2-(2-Aminopyridin-4-yl)-4-(trifluoromethyl)phenyl]thio}-5-chloro-2-fluoro-N-1,3,4-thiadiazol-2-ylbenzenesulfonamide hydrochloride] yielded an IC50 of 0.033 µM.
`COc1cc(C(F)(F)F)ccc1Cc1ccc(S(=O)(=O)Nc2ncns2)cc1C#N` [Example 21, 3-Cyano-4-[2-methoxy-4-(trifluoromethyl)benzyl]-N-1,2,4-thiadiazol-5-ylbenzenesulfonamide] was tested, and the IC50 was 0.0058 µM.
Work on `N#Cc1cc(S(=O)(=O)Nc2ncns2)ccc1Cc1ccc(C(F)(F)F)cc1-c1ccnnc1` [Example 22, 3-Cyano-4-[2-pyridazin-4-yl-4-(trifluoromethyl)benzyl]-N-1,2,4-thiadiazol-5-ylbenzenesulfonamide] yielded an IC50 of 0.14 µM.
Compound `Nc1cc(-c2cc(C(F)(F)F)ccc2Sc2cc(F)c(S(=O)(=O)Nc3ncccn3)cc2Cl)ccn1` [Example 24, 4-{[2-(2-Aminopyridin-4-yl)-4-(trifluoromethyl)phenyl]thio}-5-chloro-2-fluoro-N-pyrimidin-2-ylbenzenesulfonamide] has an IC50 of 0.072 µM.
